Data on 52 molecules can be found in patent US20110218188A1, “SUBSTITUTED (PYRIDYL)-AZINYLAMINE DERIVATIVES AS FUNGICIDES” (priority 2008, published 2011).

Marks after values point to notes of the source that are not given here.

A short description of one series: Measurement of logP values by HPLC on reversed phase columns (EEC directive 79/831 Annex V.A8). The format is physicochemical. The settings on record: pH 2.7.
In the case of `CN(C)C(=O)c1cc(-c2ccnc(Nc3ccnc(Cl)c3)n2)ccn1` [Example A32], the logP (as a rule, the decadic logarithm of the partition coefficient of the neutral form, usually between octanol and water) came out at 1.69.

Turning to `CON(C)C(=O)c1cc(-c2ncnc(Nc3ccsc3)n2)ccn1` [Example C30, N-methoxy-N-methyl-4-[4-(3-thienylamino)-1,3,5-triazin-2-yl]pyridine-2-carboxamide], the chromatographic logP (commonly a lipophilicity value derived from retention on a column) is 2.05.

Consider `CC(=O)N(c1ccsc1)c1ncnc(-c2ccnc(C(=O)N(C)CCC#N)c2)n1` [Example C29], for which the logP was found to be 1.78.

The molecule `CCCN(CCC)C(=O)c1cc(Nc2nccc(-c3ccnc(C(=O)N(CCC)CCC)c3)n2)ccn1` [Example A12] returned a logP of 2.54.

On to `COC(C)C(C)N(C)C(=O)c1cc(-c2ncnc(Nc3cccc(Cl)c3)n2)ccn1` (stereo not shown) [Example B189], for which the logP came to 3.15.

Turning to `CN(CCC#N)C(=O)c1cc(-c2ncnc(Nc3ccc(F)c(Cl)c3)n2)ccn1` [Example B201], the logP is 2.58.

As for `COC(=O)c1cc(-c2ncnc(Nc3cccc(C(F)F)c3)n2)ccn1` [B406], the logP amounted to 2.55. This logP and that of the molecule before are within 0.2 log units of each other.

Molecule `CC(=O)Nc1cccc(Nc2ncnc(-c3ccnc(C(=O)N(C)CC4CC4)c3)n2)c1` [B306] came in with a logP of 1.94.

Regarding `COC[C@H]1CCCN1C(=O)c1cc(-c2ncnc(Nc3cccc(Cl)c3)n2)ccn1` [Example B134], the logP is listed as 3.08.

`O=C(c1cc(-c2ccnc(Nc3ccnc(Cl)c3)n2)ccn1)N1CCCC(CO)C1` (stereo not shown) [Example A9] registered a logP of 1.69.

Molecule `CN(CCC#N)C(=O)c1cc(-c2ncnc(Nc3ccsc3)n2)ccn1` [Example C12] yielded a logP of 1.89.

On to `O=C(NC1CC1)c1cc(-c2ncnc(Nc3ccc(F)c(Cl)c3)n2)ccn1` [Example B192], for which the logP is reported as 3.31.

For `CC(=O)O/N=C(/N)c1cc(-c2ncnc(Nc3cccc(Cl)c3)n2)ccn1` [B109], the logP came out at 2.95.

With `O=C(NCC(F)(F)F)c1cc(-c2ncnc(Nc3cccc(Cl)c3)n2)ccn1` [B117], the logP worked out at 3.67.

Turning to `Cc1ccc(Nc2ncnc(-c3ccnc(C(=O)N(C)CC(C)C)c3)n2)cc1Cl` [Example B368], the logP turned out to be 3.78.

The molecule `CCCCN(CCCC)C(=O)c1cc(-c2ncnc(Nc3cccc(Cl)c3)n2)ccn1` [B175] had a logP of 4.75.

With `CCN(C)C(=O)c1cc(-c2ccnc(Nc3ccnc(C(F)(F)F)c3)n2)ccn1` [Example A18], the logP was 2.22.

The molecule `CC1CN(C(=O)c2cc(-c3ncnc(Nc4cccc(Cl)c4)n3)ccn2)CC(C)O1` (stereo not shown) [B154] came in with a logP of 2.92.

On to `CCC(=NOCC(C)C)c1cc(-c2ncnc(Nc3cccc(Cl)c3)n2)ccn1` (mixture of isomers) [B65], for which the logP is reported as 6.19.

`CCN(C)C(=O)c1cc(-c2ncnc(Nc3cccc(C(F)(F)F)c3)n2)ccn1` [Example B256] yielded a logP of 2.86.

Take `COCCCNC(=O)c1cc(-c2ncnc(Nc3cccc(Cl)c3)n2)ccn1` [B88]: the logP came out at 3.15.

In turn, `COCc1cccc(Nc2ncnc(-c3ccnc(C(=O)N(C)CC4CC4)c3)n2)c1` [Example B242] registered a logP of 2.58.

`CN(CC1CC1)C(=O)c1cc(-c2ccnc(Nc3ccnc(Cl)c3)n2)ccn1` [Example A31] yielded a logP of 2.28.

With `CC(C)CN(C)C(=O)c1cc(-c2ncnc(Nc3ccc(Cl)c(C(F)F)c3)n2)ccn1` [Example B388], the logP amounted to 3.58.

The molecule `CCCN(C)C(=O)c1cc(-c2ncnc(Nc3cccc(C(F)F)c3)n2)ccn1` [Example B286] registered a logP of 2.73.

`CCC(C)NC(=O)c1cc(-c2ncnc(Nc3cccc(SC)c3)n2)ccn1` (stereo not shown) [B218] registered a logP of 3.94.

In turn, `CCN(CC)C(=O)c1cc(-c2ncnc(Nc3cccc(C(F)(F)F)c3)n2)ccn1` [Example B346] returned a logP of 3.23.

`CN(CCC#N)C(=O)c1cc(-c2ccnc(Nc3ccnc(Cl)c3)n2)ccn1` [Example A24] returned a logP of 1.78.

`COC(=O)c1cc(-c2ncnc(Nc3ccc(Cl)c(OC)c3)n2)ccn1` [B417] registered a logP of 2.80.

Regarding `CCCCCN(C)C(=O)c1cc(-c2ncnc(Nc3cccc(Cl)c3)n2)ccn1` [Example B161], the logP came to 3.89.

`COc1ccc(CON=C(C)c2cc(-c3ncnc(Nc4cccc(Cl)c4)n3)ccn2)cc1` (mixture of isomers) [B60]: the logP came to 4.96.

`CCN(C)C(=O)c1cc(-c2ncnc(Nc3cccc(OC(F)F)c3)n2)ccn1` [B409] showed a logP of 2.57.

Take `CCN(C)C(=S)c1cc(-c2ncnc(Nc3cccc(C(F)(F)F)c3)n2)ccn1` [Example B257]: the logP is given as 3.41.

For `CCN(CC)C(=O)c1cccc(-c2ccnc(Nc3ccnc(Cl)c3)n2)n1` [Example A33], the logP turned out to be 2.6.

Molecule `COCCNC(=O)c1cc(-c2ncnc(Nc3cccc(Cl)c3)n2)ccn1` [B59] returned a logP of 2.84.

Molecule `COC1CCN(C(=O)c2cc(-c3ncnc(Nc4cccc(Cl)c4)n3)ccn2)CC1` [Example B169] registered a logP of 2.68.

`CCN(CC1CCCO1)C(=O)c1cc(-c2ncnc(Nc3cccc(Cl)c3)n2)ccn1` (stereo not shown) [Example B167] displayed a logP of 3.09.

In turn, `CCON(C)C(=O)c1cc(-c2ncnc(Nc3cccc(C(F)F)c3)n2)ccn1` [B415] returned a logP of 2.57.

`CC(=NNc1ncc(C(F)(F)F)cc1Cl)c1cc(-c2ncnc(Nc3cccc(Cl)c3)n2)ccn1` [B90] displayed a logP of 5.46.

Consider `CCCN(C)C(=S)c1cc(-c2ncnc(Nc3cccc(Cl)c3)n2)ccn1` [Example B336], for which the logP is reported as 3.65.

In the case of `O=C(c1cc(Nc2nccc(-c3ccnc(C(=O)N4CCCC4)c3)n2)ccn1)N1CCCC1` [Example A8], the logP is listed as 1.37.

Regarding `C#CCON=C(CC)c1cc(-c2ncnc(Nc3cccc(Cl)c3)n2)ccn1` (mixture of isomers) [B80], the logP came to 4.73.

Molecule `CC(=NOCC(F)(F)F)c1cc(-c2ncnc(Nc3cccc(Cl)c3)n2)ccn1` (mixture of isomers) [B73] gave a logP of 4.58.

In turn, `CSc1cccc(Nc2ncnc(-c3ccnc(C(=O)NC4CCC4)c3)n2)c1` [B220] had a logP of 3.73.

Molecule `Cc1ccc(Nc2ncnc(-c3ccnc(C(=O)NC4CCC4)c3)n2)cc1Cl` [B234] returned a logP of 4.29.

In turn, `CC(C)N(C)C(=O)c1cc(-c2ncnc(Nc3ccc(Cl)c(C(F)F)c3)n2)ccn1` [Example B391] displayed a logP of 3.15.

`CCCCN(CC)C(=O)c1cc(-c2ncnc(Nc3cccc(Cl)c3)n2)ccn1` [Example B162]: the logP stood at 3.87.

`Clc1cccc(Nc2ncnc(-c3ccnc(C4=NOCCO4)c3)n2)c1` [Example B187] had a logP of 2.63.

Turning to `CC(C)NC(=O)c1cc(-c2ncnc(Nc3ccc(F)c(Cl)c3)n2)ccn1` [B196], the logP was 3.73.

For the molecule `Cc1ccc(Nc2ncnc(-c3ccnc(C(=O)N(C)CCC#N)c3)n2)cc1Cl` [Example B366], the logP is 2.8.

The series is the same for the next values; noted with them: pH 7.8.
Consider `C=CCN(CC=C)C(=O)c1cc(-c2ncnc(Nc3ccc(OC)nc3)n2)ccn1` [Example C7], for which the logP was 2.58^[c].

In the case of `CCCN(C)C(=O)c1cc(-c2ncnc(Nc3ccc(OC)nc3)n2)ccn1` [Example C5], the log partition coefficient (logP) is 2.11^[c].
